# Experimental data taken from US11510964B2, “Macrocyclic peptides to decrease c-Myc protein levels and reduce cancer cell growth” (University of Kansas, priority 2017, dated 2022).
# Entries after “also recorded” stand apart in the source; their conditions may differ. Non-standard residues stand in square brackets, D forms with d. Residues, ends and D or L forms follow the SMILES beside them.
# How the values were obtained:
# [1] = system: c-Myc protein levels in PC-3 cells; assay: Western blot analysis of cellular c-Myc protein levels; format: cell-based, human
# Protocol: Cells were seeded in 6 well plates at a density of 1×10^5 cells/well and grown to 75% confluence. Cells were treated with [D-Trp]CJ-15,208 at the indicated concentrations. Cells were then harvested as described above, and the cell pellets lysed in RIPA buffer consisting of 10 mM Tris HCl, pH 8.0, 150 mM NaCl, 1 mM EDTA, 1% Triton-X-100, 0.1% SDS, 1% sodium deoxycholate, and a protease inhibitor cocktail #P8340 (Sigma). Cell lysates were centrifuged at 13×1000 rpm for 15 min and the supernatants collected. The total protein concentration was measured in cell lysates using the standard Bradford assay. SDS gel electrophoresis was performed using 4-20% polyacrylamide gel (BioRad). Western blot analysis was performed using the following antibodies: i) c-Myc #5605 (rabbit monoclonal, 1:2000 dilution, (Cell Signaling Technologies)); actin #A2228 (mouse monoclonal, 1:5000 dilution (Sigma)), PP2A #610555 (mouse monoclonal 1:5000 dilution, BD Biosciences), p-PP2A #1155-1 (rabbit polyclonal, 1:5000 dilution (Epitomics)), Erk #9107 (mouse monoclonal, 1:2000 dilution (Cell Signaling Technologies) and p-Erk #4376 (rabbit monoclonal, 1:2000 (Cell Signaling Technologies)); Akt #2920 (mouse monoclonal, 1:2000 dilution (Cell Signaling Technologies)), p-Akt #4056 (rabbit monoclonal, 1:2000 (Cell Signaling Technologies)). The secondary antibodies, goat-anti-mouse #116-035-003 and goat-anti-rabbit #111-035-003, were obtained from Jackson ImmunoResearch Laboratory. Signal densities of the protein bands were determined using ImageJ software (NIH) and normalized to the internal loading control (actin).
# [2] = mice, dose of 60 mg/kg; cited from earlier work
# HEK cells = assay: Cell proliferation assay (WST-1); format: cell-based, human
# Protocol: Human prostate cancer PC-3 cells were cultured and maintained in EMEM (ATCC), non-prostate HEK (human embryonic kidney) cells were cultured in DMEM, human prostate cancer DU145, LNCaP, 22Rv1 cells were cultured in RPMI 1640 (ATCC), and normal BPH-1 prostate cells and prostate cancer C4-2 cell line were cultured in RPMI 1640 (ATCC), all containing 10% fetal bovine serum (Atlanta Biologicals) and 1% penicillin/streptomycin (Invitrogen). Cells were grown at 37° C. in humidified air with 5% CO2 and passaged every fourth to fifth day following trypsinization with trypsin/EDTA (Invitrogen).^16
# PC-3, LNCaP, DU 145, 22Rv1, C4-2, BPH-1, and HEK cells were grown to a density of 2000 cells/well in 96 well plates and treated with [D-Trp]CJ-15,208 or other peptides for 24-72 h in duplicate. Media containing [D-Trp]CJ-15,208 was changed every 24 h. The proliferation of treated cells was determined using the cell proliferation reagent WST-1 (Roche) per the manufacturer's instructions and compared to […] control cells in 1% DMSO in media. After treatment with compound 10 μL of the reagent was added to the well in 100 μL culture media, and the cells incubated at 37° C. for 30 min. The absorbance of the media in each well was measured at […] using a plate reader (BioTek). The percentage cell proliferation was normalized to vehicle treated control cells calculated as: (mean absorbance of sample/mean absorbance of control cells)×100.^38
# Each experiment was performed in triplicate unless otherwise stated in the figure legend. GraphPad Prism 5 was used to determine IC50 values. Data represent the mean value+/−SEM. Compound vs. vehicle treated cells in the cell cycle phase and apoptosis experiments (FIGS. 5-8) were compared using the student's t-test, with a two-tailed, unpaired method, using the Prism software. The effects of compound vs. vehicle treatment on protein levels (FIG. 10) were evaluated by one-way ANOVA with Dunnett's test for multiple comparisons.
# Akt in PC-3 cells = assay: Western blot of p-Akt/total Akt protein levels; format: cell-based, human; details: 48 h
# Protocol: Cells were seeded in 6 well plates at a density of 1×10^5 cells/well and grown to 75% confluence. Cells were treated with [D-Trp]CJ-15,208 at the indicated concentrations. Cells were then harvested as described above, and the cell pellets lysed in RIPA buffer consisting of 10 mM Tris HCl, pH 8.0, 150 mM NaCl, 1 mM EDTA, 1% Triton-X-100, 0.1% SDS, 1% sodium deoxycholate, and a protease inhibitor cocktail #P8340 (Sigma). Cell lysates were centrifuged at 13×1000 rpm for 15 min and the supernatants collected. The total protein concentration was measured in cell lysates using the standard Bradford assay. SDS gel electrophoresis was performed using 4-20% polyacrylamide gel (BioRad). […] Signal densities of the protein bands were determined using ImageJ software (NIH) and normalized to the internal loading control (actin).
# Each experiment was performed in triplicate unless otherwise stated in the figure legend. […] The effects of compound vs. vehicle treatment on protein levels (FIG. 10) were evaluated by one-way ANOVA with Dunnett's test for multiple comparisons.
# [3] = system: transfected HEK-293 cells; assay: c-Myc overexpression, Annexin V-APC/PI apoptosis assay; format: cell-based, human; details: 10 μM, 48 h
# Protocol: The extent of apoptosis was analyzed by detecting surface expression of phosphatidylserine on apoptotic cells using an Annexin V-APC/PI dual staining apoptosis detection kit I (BD Biosciences) according to the manufacturer's protocol. Following treatment of PC-3 cells with 10 μM [D-Trp]CJ-15,208 or vehicle for 24 h or 48 h, the cells were collected, washed twice with cold PBS, and resuspended in 1× binding buffer at a concentration of 1×10^6 cells/mL. Cell suspension (100 μL) was transferred to a 5 ml culture tube, and 5 μL of Annexin V-APC and 25 μL of PI (50 μg/mL) were added. The cells were incubated for 15 min at room temperature in the dark with gentle vortexing, 400 μL of 1× binding buffer was then added to each sample, and the samples were analyzed using a Beckman-Coulter MoFlo XDP flow cytometer within one hour. The number of viable, apoptotic and necrotic cells were quantified using FlowJo v10.0.7. The apoptosis fraction (%) was calculated as (number of apoptotic cells/the number of total cells observed)×100%.^38
# Forced expression of c-Myc in HEK 293 cells was performed using X-temeGENE HP #6366244001 (Sigma). Cells were cultured in antibiotic free DMEM supplemented with 10% FBS and transfected with pcDNA3-HA-HA-c-Myc #74164 (Addgene). Empty-vector pcDNA3-EV was used as a control. […] Samples were analyzed using a BD FACSCanto-II cell analyzer and quantified in FlowJo v10.2. […]
# [4] = mice, after systemic administration; cited from earlier work
compound,measurement,setting,value
"O=C1N[C@H](Cc2c[nH]c3ccccc23)C(=O)N[C@@H](Cc2ccccc2)C(=O)N2CCC[C@@H]2C(=O)N[C@H]1Cc1ccccc1 [[D-Trp]CJ-15,208, cyclo[Phe-D-Pro-Phe-D-Trp]] (cyclo(F[dP]F[dW]))",decrease of cellular c-Myc protein levels,[1]; 50 μM (FIG. 1E lanes 4 and 5),5 fold
same,reduction of c-Myc protein levels,"[1]; PC-3 cells, 10 μM, 48 h",approximately 50%
same,toxicity,[2],no evidence of toxicity
same,"IC50, cell growth",HEK cells; 48 h,No effect
same,"IC50, cell growth",HEK cells; 72 h,No effect
same,effect on cell proliferation / cytotoxicity,HEK cells; time not stated,No cytotoxicity was observed; also recorded: did not prevent cell proliferation
same,total Akt protein levels,"Akt in PC-3 cells; PC-3, highest concentration (50 μM)",significant decrease
same,cellular levels of p-Akt,"Akt in PC-3 cells; PC-3, increasing concentrations",did not change significantly
same,early apoptosis,[3]; HEK-293 overexpressing c-Myc,significant increase in early apotosis
same,early apoptosis,[3]; HEK-293 transfected with empty vector,no significant difference
same,blood-brain barrier penetration,[4],appear to penetrate the blood-brain barrier
